Test results as given in US20200297867A1, “SURFACE FUNCTIONALIZATION OF LIPOSOMES AND LIPOSOMAL SPHERICAL NUCLEIC ACIDS (SNAS)” (EXICURE,INC., priority 2016, published 2020).
“Also recorded” adds a separate entry of the source.

Key:
hTLR4 = target: T1, hTLR4 (Homo sapiens, UniProt O00206+Q9Y6Y9); assay: Experiment 4: activation of HEK hTLR4 cells pre- and post-sterile filtration, QuantiBlue; type: cell-based; conditions: post-sterile filtration through 0.22 μm PES filter; max 15 μM GLA, 1:3 serial dilution, 7 dilutions; 24 hours
T1 construct: expressed in transfected cells; host or cells: HEK huTLR4 (HEK hTLR4) cells
T1 sequence (O00206 24-839): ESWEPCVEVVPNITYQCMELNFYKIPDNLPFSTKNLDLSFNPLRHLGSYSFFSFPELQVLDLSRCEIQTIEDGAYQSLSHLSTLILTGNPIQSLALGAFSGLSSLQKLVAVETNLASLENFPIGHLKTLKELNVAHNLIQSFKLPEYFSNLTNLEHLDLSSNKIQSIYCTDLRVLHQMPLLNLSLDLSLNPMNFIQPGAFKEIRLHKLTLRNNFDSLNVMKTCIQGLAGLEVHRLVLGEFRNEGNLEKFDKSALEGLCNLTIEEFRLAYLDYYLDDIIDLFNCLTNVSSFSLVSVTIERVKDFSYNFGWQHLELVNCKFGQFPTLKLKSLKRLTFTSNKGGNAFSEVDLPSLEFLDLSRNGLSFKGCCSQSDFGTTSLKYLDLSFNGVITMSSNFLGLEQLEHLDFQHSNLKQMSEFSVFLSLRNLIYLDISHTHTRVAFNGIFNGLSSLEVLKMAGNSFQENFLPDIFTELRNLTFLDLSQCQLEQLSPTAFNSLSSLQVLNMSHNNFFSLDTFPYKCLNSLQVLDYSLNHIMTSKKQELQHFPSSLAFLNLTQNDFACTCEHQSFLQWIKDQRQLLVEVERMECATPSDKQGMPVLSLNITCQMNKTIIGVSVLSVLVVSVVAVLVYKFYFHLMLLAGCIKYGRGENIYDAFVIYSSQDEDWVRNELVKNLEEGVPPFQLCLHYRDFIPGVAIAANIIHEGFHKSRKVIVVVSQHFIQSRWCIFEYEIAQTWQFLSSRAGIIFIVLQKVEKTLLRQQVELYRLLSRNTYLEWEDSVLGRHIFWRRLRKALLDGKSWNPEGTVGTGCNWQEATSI
T1 sequence (Q9Y6Y9 17-160 limits assumed): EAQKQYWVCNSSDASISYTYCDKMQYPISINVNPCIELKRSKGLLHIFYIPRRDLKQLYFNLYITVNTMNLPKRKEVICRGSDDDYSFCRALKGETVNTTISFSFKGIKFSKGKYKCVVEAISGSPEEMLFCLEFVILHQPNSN
Description: FIG. 4. […] HEK hTLR4 cells were treated with 15 μM of GLA (for each compound tested) with a 1:3 serial dilution for 7 dilutions.
GLA (Avanti Polar Lipids) was resuspended in dimethylsulfoxide (DMSO) at 1 mg/mL. GLA in DMSO was mixed with an aqueous solution of liposomes (L-GLA) or PBS (GLA alone) such that the final DMSO concentration was 2%. DMSO is miscible in aqueous solutions, and allows GLA to condense on the surface of SNAs as the organic solution is diluted. Modulation of GLA functionalized to the surface of liposomes can be achieved by adjusting the ratio of GLA to liposome. The DMSO was removed from the liposomal solution by diafiltration using tangential-flow filtration (TFF) with a hollow fiber filter (750 kDa cut-off). These liposomes which have been surface functionalized with GLA (with a loading of 50 molecules/liposome) may then be further surface modified with other molecules. L-GLA or GLA alone was then sterile filtered through a 0.22 μm PES sterile syringe filter (VWR) to remove any non-functionalized GLA or GLA aggregates. […]
QuantiBlue detection media was purchased from Invivogen. […] After development of color using the standard curve as a reference, the plate was read using a fluorescence plate reader (Synergy 4) at an absorbance of 650 nm.

[1] = Sterile filtration through 0.22 μm PES syringe filter; type: physicochemical; conditions: 0.22 μm sterile filter; inferred from HEK hTLR4 activity after filtration
Description: GLA (Avanti Polar Lipids) was resuspended in dimethylsulfoxide (DMSO) at 1 mg/mL. GLA in DMSO was mixed with an aqueous solution of liposomes (L-GLA) or PBS (GLA alone) such that the final DMSO concentration was 2%. DMSO is miscible in aqueous solutions, and allows GLA to condense on the surface of SNAs as the organic solution is diluted. Modulation of GLA functionalized to the surface of liposomes can be achieved by adjusting the ratio of GLA to liposome. The DMSO was removed from the liposomal solution by diafiltration using tangential-flow filtration (TFF) with a hollow fiber filter (750 kDa cut-off). These liposomes which have been surface functionalized with GLA (with a loading of 50 molecules/liposome) may then be further surface modified with other molecules. L-GLA or GLA alone was then sterile filtered through a 0.22 μm PES sterile syringe filter (VWR) to remove any non-functionalized GLA or GLA aggregates.
GLA alone was prepared using the same method used to prepare L-GLA but without the presence of liposomes. Free or unbound GLA will aggregate and cannot pass through a sterile filter.

CCCCCCCCCCCCCC(=O)O[C@H](CCCCCCCCCCC)CC(=O)N[C@H]1[C@H](OC[C@H]2O[C@H](O)[C@H](NC(=O)C[C@H](O)CCCCCCCCCCC)[C@@H](OC(=O)C[C@H](O)CCCCCCCCCCC)[C@@H]2O)O[C@H](CO)[C@@H](OP(=O)(O)O)[C@@H]1OC(=O)C[C@@H](CCCCCCCCCCC)OC(=O)CCCCCCCCCCCCC.N [GLA alone, glycopyranoside lipid A]
activation of HEK hTLR4 cells (hTLR4): failed to activate; also recorded: does not
passage through sterile filter [1]: removed by sterile filtration
